Experimental findings from ChEMBL document CHEMBL1135101, “Combinatorial synthesis of 3-(amidoalkyl) and 3-(aminoalkyl)-2-arylindole derivatives: discovery of potent ligands for a variety of G-protein coupled receptors” (Bioorg Med Chem Lett, 2002) are described below.

Experiment [1] concerns the target T1, Gonadotropin-releasing hormone receptor (Homo sapiens) (UniProt P30968).
T1 sequence (whole entry): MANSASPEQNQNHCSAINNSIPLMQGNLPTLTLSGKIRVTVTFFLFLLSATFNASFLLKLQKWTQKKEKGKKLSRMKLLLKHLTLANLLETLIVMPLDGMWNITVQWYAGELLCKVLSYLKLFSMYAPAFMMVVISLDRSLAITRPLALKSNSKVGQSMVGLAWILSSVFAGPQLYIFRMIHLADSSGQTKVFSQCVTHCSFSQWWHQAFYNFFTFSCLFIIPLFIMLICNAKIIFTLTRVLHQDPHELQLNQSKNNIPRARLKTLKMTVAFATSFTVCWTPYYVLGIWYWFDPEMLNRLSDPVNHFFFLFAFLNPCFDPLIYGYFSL
Description: Binding affinity towards GnRH receptor.

Experiment [2] concerns the target C-C chemokine receptor type 5 (Homo sapiens) (UniProt P51681). Kind of experiment: Binding affinity towards CCR5 receptor.
Experiment [3] concerns the target T2, C-C chemokine receptor type 3 (Homo sapiens) (UniProt P51677).
T2 sequence (whole entry): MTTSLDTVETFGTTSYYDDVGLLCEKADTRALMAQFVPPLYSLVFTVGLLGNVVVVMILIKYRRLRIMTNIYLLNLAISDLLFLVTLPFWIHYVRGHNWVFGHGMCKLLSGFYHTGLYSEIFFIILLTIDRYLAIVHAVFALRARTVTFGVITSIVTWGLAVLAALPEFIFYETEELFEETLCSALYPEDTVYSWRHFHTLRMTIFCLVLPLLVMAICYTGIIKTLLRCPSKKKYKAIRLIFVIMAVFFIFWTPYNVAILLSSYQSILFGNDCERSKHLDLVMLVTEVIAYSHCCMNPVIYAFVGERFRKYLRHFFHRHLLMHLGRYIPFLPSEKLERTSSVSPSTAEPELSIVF
Kind of experiment: Binding affinity towards CCR3 receptor.

Experiment [4] has as its target T3, C-X-C chemokine receptor type 3 (Homo sapiens) (UniProt P49682).
T3 sequence (whole entry): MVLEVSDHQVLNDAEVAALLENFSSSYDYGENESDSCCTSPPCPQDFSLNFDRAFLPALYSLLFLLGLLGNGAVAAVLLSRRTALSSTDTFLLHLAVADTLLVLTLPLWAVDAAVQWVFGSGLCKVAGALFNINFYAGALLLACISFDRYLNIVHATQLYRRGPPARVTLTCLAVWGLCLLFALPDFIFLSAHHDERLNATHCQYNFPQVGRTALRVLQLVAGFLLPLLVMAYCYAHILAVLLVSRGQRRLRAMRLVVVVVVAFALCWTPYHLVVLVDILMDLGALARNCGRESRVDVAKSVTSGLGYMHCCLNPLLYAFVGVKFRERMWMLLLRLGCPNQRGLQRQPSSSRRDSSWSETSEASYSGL
Kind of experiment: Binding affinity towards CXCR3 receptor.

In experiment [5] the target is C-C chemokine receptor type 2 (Homo sapiens) (UniProt P41597). Description: Binding affinity towards CCR2 receptor.
Experiment [6] has as its target T4, C-C chemokine receptor type 1 (Homo sapiens) (UniProt P32246).
T4 sequence (whole entry): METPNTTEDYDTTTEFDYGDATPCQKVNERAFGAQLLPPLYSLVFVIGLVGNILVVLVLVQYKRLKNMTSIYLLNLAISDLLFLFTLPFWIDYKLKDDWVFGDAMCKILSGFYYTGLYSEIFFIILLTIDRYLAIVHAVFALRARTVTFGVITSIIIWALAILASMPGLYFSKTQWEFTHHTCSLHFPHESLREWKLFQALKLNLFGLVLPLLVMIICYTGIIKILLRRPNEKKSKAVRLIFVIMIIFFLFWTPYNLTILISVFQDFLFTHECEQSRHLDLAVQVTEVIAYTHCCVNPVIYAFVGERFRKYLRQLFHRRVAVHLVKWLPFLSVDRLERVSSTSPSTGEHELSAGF
Description: Binding affinity towards CCR1 receptor.

Experiment [7] addresses C-X-C chemokine receptor type 4 (Homo sapiens) (UniProt P61073). Description: Binding affinity towards CXCR4 receptor.
The target in experiment [8] is T5, 5-hydroxytryptamine receptor 2C (Homo sapiens) (UniProt P28335).
T5 sequence (whole entry): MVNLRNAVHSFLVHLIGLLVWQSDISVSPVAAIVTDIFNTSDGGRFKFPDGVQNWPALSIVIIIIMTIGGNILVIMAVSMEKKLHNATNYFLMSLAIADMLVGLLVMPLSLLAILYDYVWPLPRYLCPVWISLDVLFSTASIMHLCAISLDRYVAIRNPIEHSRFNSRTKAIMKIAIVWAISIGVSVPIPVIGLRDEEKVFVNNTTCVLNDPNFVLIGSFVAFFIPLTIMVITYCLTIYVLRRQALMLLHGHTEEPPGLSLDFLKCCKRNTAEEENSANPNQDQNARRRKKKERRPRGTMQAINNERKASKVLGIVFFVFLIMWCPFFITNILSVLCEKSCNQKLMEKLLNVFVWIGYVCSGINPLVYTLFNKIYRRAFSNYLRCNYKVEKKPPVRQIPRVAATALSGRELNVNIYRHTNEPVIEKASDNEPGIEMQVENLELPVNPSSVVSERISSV
Kind of experiment: Binding affinity towards 5-hydroxytryptamine 2C receptor.

The target in experiment [9] is T6, 5-hydroxytryptamine receptor 1A (Homo sapiens) (UniProt P08908).
T6 sequence (whole entry): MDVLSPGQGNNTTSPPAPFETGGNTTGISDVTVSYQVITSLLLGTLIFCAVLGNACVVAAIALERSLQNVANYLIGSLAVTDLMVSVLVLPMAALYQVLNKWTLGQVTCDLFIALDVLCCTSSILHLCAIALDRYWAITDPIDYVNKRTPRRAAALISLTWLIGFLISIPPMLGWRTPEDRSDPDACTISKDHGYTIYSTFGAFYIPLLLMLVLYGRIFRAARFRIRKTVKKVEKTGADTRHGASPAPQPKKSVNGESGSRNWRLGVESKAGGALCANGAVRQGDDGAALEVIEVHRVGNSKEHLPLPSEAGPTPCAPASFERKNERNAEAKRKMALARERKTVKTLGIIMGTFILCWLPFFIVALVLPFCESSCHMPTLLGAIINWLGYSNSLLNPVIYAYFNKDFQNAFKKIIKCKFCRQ
Description: Binding affinity towards 5-hydroxytryptamine 1A receptor.

Experiment [10] addresses 5-hydroxytryptamine receptor 5A (Homo sapiens) (UniProt P47898). Description: Binding affinity towards 5-HT5a receptor.
Experiment [11] addresses 5-hydroxytryptamine receptor 2A (Homo sapiens) (UniProt P28223). Kind of experiment: Binding affinity towards 5-hydroxytryptamine 2A receptor.
Experiment [12] concerns the target 5-hydroxytryptamine receptor 6 (Homo sapiens) (UniProt P50406). Kind of experiment: Binding affinity towards human 5-hydroxytryptamine 6 receptor.
The target in experiment [13] is 5-hydroxytryptamine receptor 7 (Homo sapiens) (UniProt P34969). Description: Binding affinity towards 5-hydroxytryptamine 7 receptor.
For experiment [14], the target named is T7, Neuromedin-K receptor (Homo sapiens) (UniProt P29371).
T7 sequence (whole entry): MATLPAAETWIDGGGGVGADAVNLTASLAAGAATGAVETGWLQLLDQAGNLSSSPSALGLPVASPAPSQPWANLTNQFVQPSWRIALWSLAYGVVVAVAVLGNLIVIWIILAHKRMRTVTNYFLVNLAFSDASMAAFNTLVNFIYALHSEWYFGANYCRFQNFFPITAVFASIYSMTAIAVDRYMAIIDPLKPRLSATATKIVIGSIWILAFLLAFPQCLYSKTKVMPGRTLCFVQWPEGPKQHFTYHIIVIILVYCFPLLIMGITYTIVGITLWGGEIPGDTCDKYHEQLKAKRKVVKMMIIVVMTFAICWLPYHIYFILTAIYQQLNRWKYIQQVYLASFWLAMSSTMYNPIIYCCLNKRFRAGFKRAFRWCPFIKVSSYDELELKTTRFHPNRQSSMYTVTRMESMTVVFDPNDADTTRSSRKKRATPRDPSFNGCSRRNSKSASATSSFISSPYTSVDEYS
Description: Binding affinity towards NK3 receptor.

The target of experiment [15] is T8, Substance-K receptor (Homo sapiens) (UniProt P21452).
T8 sequence (whole entry): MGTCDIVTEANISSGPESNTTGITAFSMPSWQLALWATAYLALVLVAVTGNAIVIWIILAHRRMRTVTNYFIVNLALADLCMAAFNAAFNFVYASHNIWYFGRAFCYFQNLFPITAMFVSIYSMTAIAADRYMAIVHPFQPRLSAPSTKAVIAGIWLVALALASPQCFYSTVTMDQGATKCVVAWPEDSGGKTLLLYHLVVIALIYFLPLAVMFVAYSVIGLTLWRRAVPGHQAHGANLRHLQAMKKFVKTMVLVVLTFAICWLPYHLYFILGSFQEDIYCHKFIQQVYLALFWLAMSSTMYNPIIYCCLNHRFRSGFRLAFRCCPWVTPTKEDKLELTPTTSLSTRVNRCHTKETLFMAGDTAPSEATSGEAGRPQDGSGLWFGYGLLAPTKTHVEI
Description: Binding affinity towards NK2 receptor.

For experiment [16], the target named is Substance-P receptor (Homo sapiens) (UniProt P25103). Kind of experiment: Binding affinity towards human NK1 receptor.
In experiment [17] the target is T9, Neuropeptide Y receptor type 1 (Homo sapiens) (UniProt P25929).
T9 sequence (whole entry): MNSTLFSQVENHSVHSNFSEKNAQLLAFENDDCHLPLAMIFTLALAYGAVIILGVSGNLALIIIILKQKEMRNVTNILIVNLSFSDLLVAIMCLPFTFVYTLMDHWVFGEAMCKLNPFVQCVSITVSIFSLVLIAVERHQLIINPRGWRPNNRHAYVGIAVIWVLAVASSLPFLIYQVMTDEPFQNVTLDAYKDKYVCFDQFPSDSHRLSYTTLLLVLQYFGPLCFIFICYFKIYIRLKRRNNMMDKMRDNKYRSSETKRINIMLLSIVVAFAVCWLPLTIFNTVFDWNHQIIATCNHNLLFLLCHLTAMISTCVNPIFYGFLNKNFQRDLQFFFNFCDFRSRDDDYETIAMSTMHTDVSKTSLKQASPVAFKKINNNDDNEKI
Kind of experiment: Binding affinity towards NPY1 receptor.

The target in experiment [18] is T10, Neuropeptide Y receptor type 5 (Homo sapiens) (UniProt Q15761).
T10 sequence (whole entry): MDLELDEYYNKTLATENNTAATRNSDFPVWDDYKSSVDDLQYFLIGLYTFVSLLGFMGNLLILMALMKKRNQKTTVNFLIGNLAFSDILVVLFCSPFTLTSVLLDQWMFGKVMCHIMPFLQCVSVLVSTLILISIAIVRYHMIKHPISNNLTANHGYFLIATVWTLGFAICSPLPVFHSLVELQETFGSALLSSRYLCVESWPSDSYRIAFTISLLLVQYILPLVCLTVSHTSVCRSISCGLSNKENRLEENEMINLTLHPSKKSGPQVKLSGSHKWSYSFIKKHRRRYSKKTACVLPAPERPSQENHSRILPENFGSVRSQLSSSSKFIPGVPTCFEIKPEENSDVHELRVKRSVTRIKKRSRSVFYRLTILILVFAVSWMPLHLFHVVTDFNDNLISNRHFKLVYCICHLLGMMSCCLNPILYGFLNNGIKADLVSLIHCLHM
Description: Binding affinity towards NPY5 receptor.

The target in experiment [19] is Melanocortin receptor 4 (Homo sapiens) (UniProt P32245). Description: Binding affinity towards MCR-4 receptor.

A value given as a limit tells only on which side of the number the result lay.

5-hydroxytryptamine receptor 5A (Homo sapiens), sequence (P47898 whole entry): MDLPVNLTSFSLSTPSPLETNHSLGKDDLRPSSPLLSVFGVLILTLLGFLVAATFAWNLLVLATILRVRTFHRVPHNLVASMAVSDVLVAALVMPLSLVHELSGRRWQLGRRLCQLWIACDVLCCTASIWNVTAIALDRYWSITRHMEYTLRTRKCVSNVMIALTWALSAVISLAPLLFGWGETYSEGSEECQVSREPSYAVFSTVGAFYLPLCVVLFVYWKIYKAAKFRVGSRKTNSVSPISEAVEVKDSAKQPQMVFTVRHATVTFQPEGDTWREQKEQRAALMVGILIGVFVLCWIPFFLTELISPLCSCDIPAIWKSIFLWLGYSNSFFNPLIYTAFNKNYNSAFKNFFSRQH
5-hydroxytryptamine receptor 6 (Homo sapiens), sequence (P50406 whole entry): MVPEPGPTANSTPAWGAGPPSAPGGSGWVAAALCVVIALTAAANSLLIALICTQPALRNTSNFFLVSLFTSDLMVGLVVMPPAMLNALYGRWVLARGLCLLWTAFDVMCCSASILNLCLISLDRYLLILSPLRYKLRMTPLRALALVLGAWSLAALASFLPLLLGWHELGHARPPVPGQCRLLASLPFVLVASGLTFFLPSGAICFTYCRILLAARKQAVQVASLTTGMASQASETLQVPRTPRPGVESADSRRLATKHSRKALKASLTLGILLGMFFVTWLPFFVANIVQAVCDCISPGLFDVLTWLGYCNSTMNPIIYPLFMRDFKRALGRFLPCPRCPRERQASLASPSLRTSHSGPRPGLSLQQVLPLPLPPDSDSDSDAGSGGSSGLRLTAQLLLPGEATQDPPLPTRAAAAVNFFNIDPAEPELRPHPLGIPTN
5-hydroxytryptamine receptor 7 (Homo sapiens), sequence (P34969 whole entry): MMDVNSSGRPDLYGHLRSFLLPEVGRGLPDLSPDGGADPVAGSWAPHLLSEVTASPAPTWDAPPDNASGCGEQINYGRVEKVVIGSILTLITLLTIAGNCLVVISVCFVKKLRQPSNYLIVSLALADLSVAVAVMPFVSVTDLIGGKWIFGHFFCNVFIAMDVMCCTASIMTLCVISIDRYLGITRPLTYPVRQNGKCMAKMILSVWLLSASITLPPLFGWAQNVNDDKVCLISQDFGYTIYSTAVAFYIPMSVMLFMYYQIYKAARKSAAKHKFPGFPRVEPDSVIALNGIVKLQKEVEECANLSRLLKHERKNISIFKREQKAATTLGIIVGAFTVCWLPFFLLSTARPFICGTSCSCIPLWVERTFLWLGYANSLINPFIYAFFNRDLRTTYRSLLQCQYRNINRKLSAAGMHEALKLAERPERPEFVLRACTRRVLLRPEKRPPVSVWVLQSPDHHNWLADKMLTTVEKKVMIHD
Substance-P receptor (Homo sapiens), sequence (P25103 whole entry): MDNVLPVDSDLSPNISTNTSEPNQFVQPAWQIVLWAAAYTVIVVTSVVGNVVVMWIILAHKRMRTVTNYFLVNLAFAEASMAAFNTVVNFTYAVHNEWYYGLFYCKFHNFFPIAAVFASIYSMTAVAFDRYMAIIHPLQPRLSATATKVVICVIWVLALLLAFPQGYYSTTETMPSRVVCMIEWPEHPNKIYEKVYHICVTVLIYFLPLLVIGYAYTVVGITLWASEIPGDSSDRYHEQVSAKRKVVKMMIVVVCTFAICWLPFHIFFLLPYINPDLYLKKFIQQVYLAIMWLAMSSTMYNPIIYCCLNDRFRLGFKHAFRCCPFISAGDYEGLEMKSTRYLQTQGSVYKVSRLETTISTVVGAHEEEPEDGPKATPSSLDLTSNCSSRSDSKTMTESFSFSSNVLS
C-X-C chemokine receptor type 4 (Homo sapiens), sequence (P61073 whole entry): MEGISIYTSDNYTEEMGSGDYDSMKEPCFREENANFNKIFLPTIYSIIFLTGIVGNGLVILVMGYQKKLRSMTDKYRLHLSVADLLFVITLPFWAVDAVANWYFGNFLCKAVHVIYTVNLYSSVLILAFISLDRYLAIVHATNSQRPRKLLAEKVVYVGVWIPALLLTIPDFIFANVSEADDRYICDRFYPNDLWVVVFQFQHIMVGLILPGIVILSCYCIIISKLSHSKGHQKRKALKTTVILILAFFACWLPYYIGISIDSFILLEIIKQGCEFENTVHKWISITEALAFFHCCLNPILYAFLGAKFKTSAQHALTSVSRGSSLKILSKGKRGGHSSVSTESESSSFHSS
Melanocortin receptor 4 (Homo sapiens), sequence (P32245 whole entry): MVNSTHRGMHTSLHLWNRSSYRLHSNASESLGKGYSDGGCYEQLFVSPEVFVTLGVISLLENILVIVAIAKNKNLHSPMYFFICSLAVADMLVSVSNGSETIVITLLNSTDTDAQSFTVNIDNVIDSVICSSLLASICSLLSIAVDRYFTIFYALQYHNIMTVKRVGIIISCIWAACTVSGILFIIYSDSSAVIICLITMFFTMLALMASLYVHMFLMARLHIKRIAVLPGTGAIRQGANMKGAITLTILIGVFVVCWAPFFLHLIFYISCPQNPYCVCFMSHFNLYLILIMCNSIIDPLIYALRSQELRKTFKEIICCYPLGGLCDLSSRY
5-hydroxytryptamine receptor 2A (Homo sapiens), sequence (P28223 whole entry): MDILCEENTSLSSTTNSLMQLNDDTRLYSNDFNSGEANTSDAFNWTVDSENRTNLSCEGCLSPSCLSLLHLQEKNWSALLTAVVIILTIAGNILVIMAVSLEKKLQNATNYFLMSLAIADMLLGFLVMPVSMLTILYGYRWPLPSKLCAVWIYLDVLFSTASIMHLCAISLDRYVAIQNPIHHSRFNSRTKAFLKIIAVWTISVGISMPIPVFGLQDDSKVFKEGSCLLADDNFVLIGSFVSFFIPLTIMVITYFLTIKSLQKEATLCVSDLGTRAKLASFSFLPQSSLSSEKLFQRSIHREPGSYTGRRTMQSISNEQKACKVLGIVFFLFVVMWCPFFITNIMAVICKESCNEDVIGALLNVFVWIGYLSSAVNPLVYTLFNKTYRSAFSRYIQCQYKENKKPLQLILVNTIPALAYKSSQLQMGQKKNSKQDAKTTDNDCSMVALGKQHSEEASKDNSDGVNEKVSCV
C-C chemokine receptor type 5 (Homo sapiens), sequence (P51681 whole entry, looked up): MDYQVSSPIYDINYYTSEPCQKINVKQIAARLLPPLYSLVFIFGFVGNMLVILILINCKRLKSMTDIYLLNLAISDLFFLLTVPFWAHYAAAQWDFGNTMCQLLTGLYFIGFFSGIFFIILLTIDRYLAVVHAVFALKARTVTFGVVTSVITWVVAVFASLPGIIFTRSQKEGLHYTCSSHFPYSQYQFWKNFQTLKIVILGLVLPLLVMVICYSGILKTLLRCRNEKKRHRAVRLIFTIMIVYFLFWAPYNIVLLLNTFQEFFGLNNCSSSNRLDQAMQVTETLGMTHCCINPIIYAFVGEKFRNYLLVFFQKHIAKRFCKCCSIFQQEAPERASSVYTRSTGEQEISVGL
C-C chemokine receptor type 2 (Homo sapiens), sequence (P41597 whole entry, looked up): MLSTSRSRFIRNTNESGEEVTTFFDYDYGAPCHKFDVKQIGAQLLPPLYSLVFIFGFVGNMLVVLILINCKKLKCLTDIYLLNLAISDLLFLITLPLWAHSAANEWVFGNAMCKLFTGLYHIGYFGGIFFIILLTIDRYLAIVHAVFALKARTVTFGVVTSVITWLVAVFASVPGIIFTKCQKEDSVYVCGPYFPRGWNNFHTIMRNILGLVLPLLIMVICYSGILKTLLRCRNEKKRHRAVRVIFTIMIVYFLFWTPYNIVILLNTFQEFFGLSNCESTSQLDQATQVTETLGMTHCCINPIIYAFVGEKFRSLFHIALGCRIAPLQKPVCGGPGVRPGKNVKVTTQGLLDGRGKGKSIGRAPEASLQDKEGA

`CCOC(=O)C(C)(C)c1ccc2[nH]c(-c3cc(C)cc(C)c3)c(CCCN3CCC(O)(c4ccccc4)CC3)c2c1`: the Activity in experiment [1] was 52 nM.

On to `Brc1ccc(-c2[nH]c3ccc4ccccc4c3c2CCCNC2CCC(c3ccccc3)C2)cc1` (stereo not drawn), for which the Activity was 1190 nM in [2]; 920 nM in [3]; greater than 10 µM in experiment [4]; greater than 10 µM in [5]; greater than 10 µM in [6]; 1520 nM in experiment [7].

For `Brc1ccc(-c2[nH]c3cccc(-c4ccccc4)c3c2CCCN2CCCC2)cc1`, the Activity is 60 nM in experiment [8]; greater than 1 µM in experiment [9]; greater than 1 µM in experiment [10]; 10 nM in [11]; 635 nM in experiment [12]; greater than 1 µM in experiment [13].

As for `COc1ccccc1N1CCN(C(=O)CCc2c(-c3ccc(Br)cc3)[nH]c3ccc(C)cc23)CC1`, the figures for the Activity in experiment [14], in experiment [15] and in [16] were greater than 10 µM, greater than 10 µM and 0.8 nM, respectively.

On to `CC(NCCCc1c(-c2cccc(Br)c2)[nH]c2ccccc12)c1ccc(O)cc1` (stereo not drawn), for which the results for the Activity in [17] and in experiment [18] were greater than 10 µM and 0.8 nM, respectively.

`Cc1ccc2[nH]c(-c3ccc(Br)cc3)c(CCCCCNC3CCCCC3)c2c1` displayed an Activity in experiment [19] of 612 nM.

In the case of `CN(C)CCCc1c(-c2cccc(Br)c2)[nH]c2ccccc12`, the Activity in experiment [9] was greater than 1 µM; in experiment [10] it was greater than 1 µM; in [12], 0.7 nM; in [13], 0.3 µM.
